This is an account of results in patent US10670605B2, “Cysteine reactive probes and uses thereof” (The Scripps Research Institute, priority 2015, dated 2020).

Each structure is given as a SMILES string.

The target in assay [1] is T1, cysteines in MDA-MB-231 and Ramos cells (Homo sapiens, UniProt Q86SX6).
T1 sequence (Q86SX6 32-157): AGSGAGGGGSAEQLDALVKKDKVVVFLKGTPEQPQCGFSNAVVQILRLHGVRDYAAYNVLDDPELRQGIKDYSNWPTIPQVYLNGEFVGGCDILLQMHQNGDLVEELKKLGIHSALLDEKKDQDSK
In words: Competitive isoTOP-ABPP in situ (fragment-treated cells). It counts as cell-based. The conditions noted are these: 200 μM, insitu.

The target of another assay is T2, MGMT C145 (P16455) (Homo sapiens, UniProt P16455).
T2 sequence (P16455 1-207): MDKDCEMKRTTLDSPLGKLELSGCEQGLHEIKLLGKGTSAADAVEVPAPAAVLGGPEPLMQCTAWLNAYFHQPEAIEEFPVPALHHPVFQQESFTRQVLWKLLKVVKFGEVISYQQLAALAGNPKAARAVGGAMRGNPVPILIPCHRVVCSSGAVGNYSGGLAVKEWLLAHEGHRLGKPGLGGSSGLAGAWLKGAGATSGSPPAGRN
In words: Competitive isoTOP-ABPP, cell lysates. It counts as binding. Conditions: for isoTOP-ABPP reactivity ratio, P16455_C145 / isoTOP-ABPP reactivity profile ratio, P16455_C145: 500 μm.

For the next assay, the target named is LRBA C2675 (P50851) (Homo sapiens, UniProt P50851). In words: Competitive isoTOP-ABPP, cell lysates. Conditions: for isoTOP-ABPP reactivity ratio, P50851_C2675: 500 μm. It is filed as binding.
The target of a further assay is EZH2 C503 (Q15910) (Homo sapiens, UniProt Q15910). The assay can be described thus: Competitive isoTOP-ABPP, cell lysates. It is filed as binding. Conditions: for isoTOP-ABPP reactivity profile ratio, Q15910_C503: 500 μm, in-vitro_ramos_231.
A further assay addresses RRAGC C358 (Q9HB90) (Homo sapiens, UniProt Q9HB90). The assay can be described thus: Competitive isoTOP-ABPP, cell lysates. Conditions: for isoTOP-ABPP reactivity ratio, Q9HB90_C358 / isoTOP-ABPP reactivity profile ratio, Q9HB90_C358: 500 μm. It is filed as binding.
For assay [2], the target named is cysteines in MDA-MB-231 and Ramos cells (Homo sapiens, UniProt Q14997). The assay can be described thus: Competitive isoTOP-ABPP in situ (fragment-treated cells). It is filed as cell-based. Conditions: 200 μM, insitu.
In assay [3] the target is T3, cysteines in MDA-MB-231 and Ramos cells (Homo sapiens, UniProt Q15233).
T3 sequence (Q15233 1-471): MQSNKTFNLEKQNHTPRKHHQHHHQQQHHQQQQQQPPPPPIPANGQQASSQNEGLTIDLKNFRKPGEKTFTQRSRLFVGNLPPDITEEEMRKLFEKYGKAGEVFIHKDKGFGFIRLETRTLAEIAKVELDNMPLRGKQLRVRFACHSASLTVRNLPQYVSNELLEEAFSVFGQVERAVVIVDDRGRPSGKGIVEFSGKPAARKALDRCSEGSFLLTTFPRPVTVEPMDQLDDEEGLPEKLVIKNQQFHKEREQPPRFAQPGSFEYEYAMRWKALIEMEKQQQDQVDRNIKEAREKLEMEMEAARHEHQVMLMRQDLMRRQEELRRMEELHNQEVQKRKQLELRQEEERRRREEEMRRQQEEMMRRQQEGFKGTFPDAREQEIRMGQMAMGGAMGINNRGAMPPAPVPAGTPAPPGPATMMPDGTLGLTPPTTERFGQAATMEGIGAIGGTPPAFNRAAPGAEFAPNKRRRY
The description is as above. It counts as cell-based. The conditions noted are these: 200 μM, insitu.

The next assay addresses PFKFB4 C159 (Q16877) (Homo sapiens, UniProt Q16877). In words: Competitive isoTOP-ABPP, cell lysates. Conditions: 500 μm, in-vitro_ramos. It counts as binding.
In assay [4] the target is cysteines in MDA-MB-231 and Ramos cells (Homo sapiens, UniProt Q16831). In words: Competitive isoTOP-ABPP in situ (fragment-treated cells). It is filed as cell-based. Conditions: 200 μM, insitu, 231.
cysteines in MDA-MB-231 and Ramos cells (Homo sapiens, UniProt Q16831), sequence (Q16831 whole entry, the tested form may be a part): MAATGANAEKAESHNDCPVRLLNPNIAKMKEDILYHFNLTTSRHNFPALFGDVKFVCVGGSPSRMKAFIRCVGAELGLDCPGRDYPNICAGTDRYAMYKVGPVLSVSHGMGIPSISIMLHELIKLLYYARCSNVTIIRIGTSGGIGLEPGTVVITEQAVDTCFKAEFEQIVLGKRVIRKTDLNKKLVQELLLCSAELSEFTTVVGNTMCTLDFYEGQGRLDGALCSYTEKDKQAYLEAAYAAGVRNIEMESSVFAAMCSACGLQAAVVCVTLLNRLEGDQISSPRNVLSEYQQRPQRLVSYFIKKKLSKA

LRBA C2675 (P50851), sequence (P50851 whole entry): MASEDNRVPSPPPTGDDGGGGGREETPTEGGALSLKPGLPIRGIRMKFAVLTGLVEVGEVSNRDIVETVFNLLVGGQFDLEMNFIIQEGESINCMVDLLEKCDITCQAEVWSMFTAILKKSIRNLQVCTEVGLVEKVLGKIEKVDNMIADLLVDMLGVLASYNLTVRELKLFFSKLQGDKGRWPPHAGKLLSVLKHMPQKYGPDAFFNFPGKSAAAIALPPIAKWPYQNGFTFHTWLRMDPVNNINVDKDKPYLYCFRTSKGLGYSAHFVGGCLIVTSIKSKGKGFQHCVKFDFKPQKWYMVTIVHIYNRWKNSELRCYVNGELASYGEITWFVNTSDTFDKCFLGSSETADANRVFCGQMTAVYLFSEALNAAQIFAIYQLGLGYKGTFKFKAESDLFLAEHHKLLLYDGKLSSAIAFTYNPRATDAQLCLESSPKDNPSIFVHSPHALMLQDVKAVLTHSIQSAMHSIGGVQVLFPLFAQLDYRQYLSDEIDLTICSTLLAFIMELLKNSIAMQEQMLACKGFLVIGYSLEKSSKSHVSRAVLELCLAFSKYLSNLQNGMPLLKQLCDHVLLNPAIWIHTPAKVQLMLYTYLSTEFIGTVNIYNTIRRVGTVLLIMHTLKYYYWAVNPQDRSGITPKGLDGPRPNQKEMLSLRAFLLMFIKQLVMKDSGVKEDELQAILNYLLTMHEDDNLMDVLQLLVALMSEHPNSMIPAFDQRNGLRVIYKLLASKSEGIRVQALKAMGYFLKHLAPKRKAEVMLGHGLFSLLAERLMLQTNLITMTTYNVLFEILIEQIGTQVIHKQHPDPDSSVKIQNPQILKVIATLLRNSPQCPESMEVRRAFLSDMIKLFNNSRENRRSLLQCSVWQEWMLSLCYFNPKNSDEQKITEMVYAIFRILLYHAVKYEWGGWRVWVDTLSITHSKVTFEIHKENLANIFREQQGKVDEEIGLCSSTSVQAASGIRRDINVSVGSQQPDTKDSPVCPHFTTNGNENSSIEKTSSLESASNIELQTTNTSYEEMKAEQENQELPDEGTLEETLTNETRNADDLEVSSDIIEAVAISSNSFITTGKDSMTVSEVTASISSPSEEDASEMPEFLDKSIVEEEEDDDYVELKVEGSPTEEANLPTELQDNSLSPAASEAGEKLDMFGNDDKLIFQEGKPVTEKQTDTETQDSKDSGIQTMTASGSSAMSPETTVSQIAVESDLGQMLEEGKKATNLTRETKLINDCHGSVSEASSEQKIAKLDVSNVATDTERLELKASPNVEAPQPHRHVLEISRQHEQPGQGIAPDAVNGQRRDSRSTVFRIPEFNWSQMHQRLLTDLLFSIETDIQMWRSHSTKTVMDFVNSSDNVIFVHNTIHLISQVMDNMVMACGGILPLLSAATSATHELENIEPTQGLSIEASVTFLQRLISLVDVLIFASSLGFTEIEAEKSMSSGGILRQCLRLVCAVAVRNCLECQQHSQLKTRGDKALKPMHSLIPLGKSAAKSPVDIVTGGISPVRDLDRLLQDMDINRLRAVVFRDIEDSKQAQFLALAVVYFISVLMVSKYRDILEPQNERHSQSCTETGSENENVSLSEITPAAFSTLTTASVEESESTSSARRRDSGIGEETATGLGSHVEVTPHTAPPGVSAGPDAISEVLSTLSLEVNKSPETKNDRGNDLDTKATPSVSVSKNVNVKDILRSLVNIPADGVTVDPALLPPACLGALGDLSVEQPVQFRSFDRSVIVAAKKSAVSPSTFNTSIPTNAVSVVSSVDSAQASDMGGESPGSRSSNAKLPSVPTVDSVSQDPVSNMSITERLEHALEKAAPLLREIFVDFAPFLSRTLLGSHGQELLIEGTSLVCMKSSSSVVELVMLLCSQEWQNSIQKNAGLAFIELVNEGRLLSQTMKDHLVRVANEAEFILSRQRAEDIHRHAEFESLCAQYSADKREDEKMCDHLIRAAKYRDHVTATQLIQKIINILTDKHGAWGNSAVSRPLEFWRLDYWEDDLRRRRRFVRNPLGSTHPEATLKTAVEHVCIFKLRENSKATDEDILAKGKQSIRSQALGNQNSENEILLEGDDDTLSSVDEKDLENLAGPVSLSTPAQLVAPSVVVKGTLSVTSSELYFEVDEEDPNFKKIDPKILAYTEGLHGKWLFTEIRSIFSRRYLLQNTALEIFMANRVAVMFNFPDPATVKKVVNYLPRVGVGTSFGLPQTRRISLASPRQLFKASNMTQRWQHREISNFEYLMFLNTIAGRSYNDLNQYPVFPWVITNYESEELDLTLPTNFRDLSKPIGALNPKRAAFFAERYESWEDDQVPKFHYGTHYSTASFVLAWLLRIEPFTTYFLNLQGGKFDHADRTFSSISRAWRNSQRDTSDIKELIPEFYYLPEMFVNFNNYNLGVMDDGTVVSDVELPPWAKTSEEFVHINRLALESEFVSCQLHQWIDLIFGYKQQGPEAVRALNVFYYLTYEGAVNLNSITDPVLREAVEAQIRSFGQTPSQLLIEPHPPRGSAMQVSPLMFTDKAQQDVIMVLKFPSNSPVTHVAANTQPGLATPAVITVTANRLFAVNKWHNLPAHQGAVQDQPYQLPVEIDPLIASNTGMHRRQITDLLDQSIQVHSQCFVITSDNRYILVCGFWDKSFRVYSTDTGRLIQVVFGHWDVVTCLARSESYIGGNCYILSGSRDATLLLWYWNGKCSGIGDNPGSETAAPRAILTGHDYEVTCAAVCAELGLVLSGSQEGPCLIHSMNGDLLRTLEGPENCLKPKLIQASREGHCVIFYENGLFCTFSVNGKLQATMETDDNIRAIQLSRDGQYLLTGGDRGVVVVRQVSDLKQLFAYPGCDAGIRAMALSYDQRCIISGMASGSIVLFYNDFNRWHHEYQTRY
EZH2 C503 (Q15910), sequence (Q15910 whole entry): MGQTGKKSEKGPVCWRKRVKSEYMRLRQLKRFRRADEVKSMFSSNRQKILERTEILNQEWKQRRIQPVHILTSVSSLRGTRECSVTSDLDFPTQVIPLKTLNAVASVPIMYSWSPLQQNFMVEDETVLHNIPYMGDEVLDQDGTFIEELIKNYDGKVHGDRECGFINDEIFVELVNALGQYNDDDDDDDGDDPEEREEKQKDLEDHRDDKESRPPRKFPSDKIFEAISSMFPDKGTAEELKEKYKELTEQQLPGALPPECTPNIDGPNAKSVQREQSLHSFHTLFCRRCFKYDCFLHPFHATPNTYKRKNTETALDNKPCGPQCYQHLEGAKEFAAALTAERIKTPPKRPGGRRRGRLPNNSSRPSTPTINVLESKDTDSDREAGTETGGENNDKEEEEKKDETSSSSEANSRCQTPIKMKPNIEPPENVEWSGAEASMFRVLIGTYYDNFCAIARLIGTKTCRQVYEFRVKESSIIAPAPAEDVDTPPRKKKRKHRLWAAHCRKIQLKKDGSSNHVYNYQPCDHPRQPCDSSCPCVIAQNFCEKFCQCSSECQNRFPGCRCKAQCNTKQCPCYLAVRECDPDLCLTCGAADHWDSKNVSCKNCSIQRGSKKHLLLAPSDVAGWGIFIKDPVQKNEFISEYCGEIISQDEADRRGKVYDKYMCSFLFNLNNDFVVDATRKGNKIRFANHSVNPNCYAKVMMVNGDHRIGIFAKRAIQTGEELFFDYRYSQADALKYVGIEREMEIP
EZH2 C503 (Q15910), sequence (O75530 whole entry partner): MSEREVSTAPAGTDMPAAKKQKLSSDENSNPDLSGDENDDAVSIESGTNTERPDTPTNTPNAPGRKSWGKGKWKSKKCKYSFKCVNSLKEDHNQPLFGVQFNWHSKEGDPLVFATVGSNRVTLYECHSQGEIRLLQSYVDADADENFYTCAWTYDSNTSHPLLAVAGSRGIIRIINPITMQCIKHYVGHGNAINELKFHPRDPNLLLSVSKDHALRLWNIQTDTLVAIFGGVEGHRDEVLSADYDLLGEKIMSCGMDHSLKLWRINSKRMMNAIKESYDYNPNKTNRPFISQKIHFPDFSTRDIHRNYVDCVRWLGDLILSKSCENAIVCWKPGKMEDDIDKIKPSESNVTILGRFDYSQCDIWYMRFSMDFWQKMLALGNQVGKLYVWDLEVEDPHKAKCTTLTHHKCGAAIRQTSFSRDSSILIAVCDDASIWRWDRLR
EZH2 C503 (Q15910), sequence (Q15022 whole entry partner): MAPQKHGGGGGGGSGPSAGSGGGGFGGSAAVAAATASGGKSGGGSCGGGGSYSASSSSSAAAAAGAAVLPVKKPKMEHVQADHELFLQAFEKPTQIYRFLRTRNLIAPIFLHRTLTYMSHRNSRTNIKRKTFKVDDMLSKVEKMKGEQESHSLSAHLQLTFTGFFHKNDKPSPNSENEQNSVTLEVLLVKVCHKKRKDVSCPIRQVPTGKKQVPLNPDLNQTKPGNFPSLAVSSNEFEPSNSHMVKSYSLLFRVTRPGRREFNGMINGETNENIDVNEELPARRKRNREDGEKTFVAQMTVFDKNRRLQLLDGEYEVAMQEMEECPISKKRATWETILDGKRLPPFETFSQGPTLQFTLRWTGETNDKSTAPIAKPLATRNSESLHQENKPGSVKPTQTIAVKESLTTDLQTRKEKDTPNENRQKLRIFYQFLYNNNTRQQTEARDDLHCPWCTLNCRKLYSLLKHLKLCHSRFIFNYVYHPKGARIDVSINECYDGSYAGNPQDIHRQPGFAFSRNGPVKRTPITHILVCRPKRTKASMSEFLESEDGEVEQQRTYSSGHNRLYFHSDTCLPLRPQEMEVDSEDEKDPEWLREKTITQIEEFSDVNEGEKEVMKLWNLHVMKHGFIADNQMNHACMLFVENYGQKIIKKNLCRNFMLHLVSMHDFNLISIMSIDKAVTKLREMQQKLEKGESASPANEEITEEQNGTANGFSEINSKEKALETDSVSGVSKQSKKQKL

For the compound `O=C(CCl)N1CCN(CC(=O)N2CCOCC2)CC1` [compound 29], in assay [1] (ramos), the “isoTOP-ABPP ratio Q86SX6_C67” value worked out at 1.2. The “isoTOP-ABPP ratio (reactivity profile), P16455_C145” value at MGMT C145 (P16455) (500 μm in-vitro ramos) is 20.0. Besides, on LRBA C2675 (P50851) (500 μm in-vitro ramos_231), the “isoTOP-ABPP ratio (reactivity profile), P50851_C2675” value came out at 1.1. The “isoTOP-ABPP ratio (reactivity profile), Q15910_C503” value on EZH2 C503 (Q15910) (500 μm in-vitro ramos_231) was found to be 1.4.

With `CCN(CC)c1ccc(S(N)(=O)=O)cc1NC(=O)CCl` [compound 30], the “isoTOP-ABPP ratio (reactivity profile), Q9HB90_C358” value on RRAGC C358 (Q9HB90) (500 μm in-vitro ramos) was determined as 1.0. Further, on LRBA C2675 (P50851) (500 μm in-vitro ramos), the “isoTOP-ABPP ratio (reactivity profile), P50851_C2675” value is listed as 0.9.

As to `C=CC(=O)N(Cc1cccnc1)c1cc(C(F)(F)F)cc(C(F)(F)F)c1` [compound 31], the “isoTOP-ABPP ratio Q14997_C1840” value in assay [2] (ramos) was determined as 1.2. Further, the “isoTOP-ABPP ratio Q15233_C145” value came to 0.7 in assay [3] (231) and 0.8 in [3] (ramos). Moreover, the “isoTOP-ABPP ratio Q86SX6_C67” value in assay [1] (ramos) was found to be 0.7. Moreover, the “isoTOP-ABPP reactivity ratio, P16455_C145” value on MGMT C145 (P16455) (in-vitro_ramos) is 1.0. Besides, the “isoTOP-ABPP reactivity ratio, Q9HB90_C358” value at RRAGC C358 (Q9HB90) (in-vitro_ramos_231) is reported as 2.3.

As for `O=C(CCl)N(Cc1ccc(F)cc1)C12CC3CC(CC(C3)C1)C2` [compound 34], the “isoTOP-ABPP reactivity ratio, Q16877_C159” value at PFKFB4 C159 (Q16877) came to 1.4. Moreover, at LRBA C2675 (P50851) (in-vitro_ramos), the “isoTOP-ABPP reactivity ratio, P50851_C2675” value came to 1.1.

Regarding `O=C(CCl)Nc1ccccc1C1CCCCCC1` [compound 35], the “isoTOP-ABPP reactivity ratio, P50851_C2675” value at LRBA C2675 (P50851) (in-vitro_ramos) is 1.0.

In the case of `C=CC(=O)N1CCC(c2noc3ccc(F)cc23)CC1` [compound 37], the “isoTOP-ABPP reactivity ratio, P50851_C2675” value at LRBA C2675 (P50851) (in-vitro_ramos) is reported as 1.0.

As for `C=CC(=O)Nc1cc(F)c(N2CCN(C(=O)OC(C)(C)C)CC2)c(F)c1` [compound 38], in assay [2] (231), the “isoTOP-ABPP ratio Q14997_C1840” value is 20.0. The “isoTOP-ABPP ratio Q16831_C162” value in assay [4] turned out to be 1.4. For the same compound, the “isoTOP-ABPP ratio Q15233_C145” value in [3] (231) is 0.9. In assay [1] (231), the “isoTOP-ABPP ratio Q86SX6_C67” value was 1.0. For the same compound, the “isoTOP-ABPP reactivity ratio, Q9HB90_C358” value on RRAGC C358 (Q9HB90) (in-vitro_ramos_231) worked out at 1.1.

`C=CC(=O)Nc1cc(C)c(Br)cc1C` [compound 40]: the “isoTOP-ABPP reactivity ratio, P16455_C145” value at MGMT C145 (P16455) (in-vitro_ramos) amounted to 1.0. Also, on PFKFB4 C159 (Q16877), the “isoTOP-ABPP reactivity ratio, Q16877_C159” value is 1.2.

Take `Cc1ccc(C=C(C#N)C(=O)NCCN2CCOCC2)cc1` [compound 41]: the “isoTOP-ABPP ratio Q14997_C1840” value in assay [2] (231) is 0.9. For the same compound, the “isoTOP-ABPP ratio Q16831_C162” value in assay [4] was determined as 0.8. Moreover, in [3] (231), the “isoTOP-ABPP ratio Q15233_C145” value is 1.1. Also, the “isoTOP-ABPP ratio Q86SX6_C67” value in assay [1] (231) is 1.0. At MGMT C145 (P16455) (in-vitro_ramos_231), the “isoTOP-ABPP reactivity ratio, P16455_C145” value is on record as 1.9. Also, the “isoTOP-ABPP reactivity ratio, Q9HB90_C358” value on RRAGC C358 (Q9HB90) (in-vitro_ramos_231) is recorded as 1.3. At LRBA C2675 (P50851) (in-vitro_ramos_231), the “isoTOP-ABPP reactivity ratio, P50851_C2675” value is 1.9.

As to `N#CC(=Cc1ccc(-c2ccccc2Cl)o1)C(N)=O` [compound 42], the “isoTOP-ABPP reactivity profile ratio, P16455_C145” value at MGMT C145 (P16455) (in-vitro_ramos) was found to be 0.9.

`COc1cc(NC(=O)CCl)cc(OC)c1` [compound 43]: on EZH2 C503 (Q15910), the “isoTOP-ABPP reactivity profile ratio, Q15910_C503” value stood at 20.0.

Turning to `CC1CCc2ccccc2N1C(=O)CCl` (stereo not drawn) [compound 45], in assay [4], the “isoTOP-ABPP ratio Q16831_C162” value amounted to 1.3. In addition, the “isoTOP-ABPP ratio Q15233_C145” value in assay [3] (231) came out at 3.7. Moreover, the “isoTOP-ABPP ratio Q86SX6_C67” value in assay [1] (231) was 9.1.

As to `C=CC(=O)N(c1ccccc1)C1CCCCC1` [compound 46], the “isoTOP-ABPP reactivity profile ratio, Q9HB90_C358” value on RRAGC C358 (Q9HB90) (in-vitro_ramos_231) is given as 1.1.

Turning to `O=C(CCl)Nc1ccc(-c2ccccc2)cc1` [compound 52], the “isoTOP-ABPP reactivity profile ratio, Q15910_C503” value on EZH2 C503 (Q15910) worked out at 0.9.

Turning to `C=CC(=O)N1CCC(Cc2ccccc2)CC1` [compound 53], the “isoTOP-ABPP reactivity profile ratio, P16455_C145” value on MGMT C145 (P16455) (in-vitro_ramos) was found to be 1.0. Further, the “isoTOP-ABPP reactivity profile ratio, Q9HB90_C358” value at RRAGC C358 (Q9HB90) (in-vitro_ramos) stood at 0.6.
